Test results from patent publication US9776972B2, “Pyrazole derivatives as arginine methyltransferase inhibitors and uses thereof” (priority 2013, dated 2017).
Read-outs that look alike come from different tables or passages of the source.

Experiments:
human PRMT6 = target: T1, human PRMT6 (Homo sapiens, UniProt Q96LA8); assay: PRMT6 Biochemical Assay (3H-SAM Flashplate, peptide substrate)
T1 construct: Flag-PRMT6-His; made in house; host or cells: HEK 293F cells (BacMam baculovirus)
How it was run: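 Flag-PRMT6-His, expressed in mammalian cells from a BacMam vector, was preincubated with compound for 30 min at room temperature in Bicine pH 7.6 buffer with TCEP, BSG and Tween 20. Reactions were started with ³H-SAM and a biotinylated histone H4 36-50 peptide, then stopped with cold SAM (400 uM final). Labeled peptide was captured on streptavidin Flashplates, counted, and fitted to a 3- or 4-parameter curve.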

human PRMT8 = human PRMT8 (Homo sapiens, UniProt Q9NR22); assay: PRMT8 Biochemical Assay (3H-SAM Flashplate, peptide substrate)
Text: S-adenosylmethionine (SAM), S-adenosylhomocysteine (SAH), bicine, Tween20, dimethylsulfoxide (DMSO), bovine skin gelatin (BSG), isopropyl-β-D-thiogalactopyranoside (IPTG), and Tris(2-carboxyethyl)phosphine hydrochloride solution (TCEP) were purchased from Sigma-Aldrich at the highest level of purity possible. ^3H-SAM was purchase from American Radiolabeled Chemicals with a specific activity of 80 Ci/mmol. 384-well streptavidin Flashplates were purchased from PerkinElmer.
Peptide representative of human histone H4 residues 31-45 was synthesized with an N-terminal linker-affinity tag motif and a C-terminal amide cap by 21st Century Biochemicals.
E. coli (BL21(DE3) Gold, Stratagene) made competent by the CaCl2 method were transformed with the PRMT8 construct and ampicillin selection. Protein over-expression was accomplished by growing the PRMT8 expressing E. coli clone and inducing expression with 0.3 mM IPTG at 16° C. The culture was grown for 12 hours, harvested by centrifugation, and stored at −80° C. for purification.
GST-tagged PRMT8 was eluted with 50 mM Tris, 2 mM glutathione, pH 7.8. Pooled fractions were cleaved by thrombin (10 U) and dialysed in buffer A. GST was removed by reloading the cleaved protein sample onto glutathione sepharose column and PRMT8 was collected in the flow-through fractions. PRMT8 was purified further by ceramic hydroxyapatite chromatography. The column was washed with 50 mM phosphate buffer, 100 mM NaCl, 5% glycerol, 5 mM β-mercaptoethanol, pH 7.8 and PRMT8 was eluted by 100 mM phosphate in the same buffer. Protein was concentrated and buffer was exchanged to 50 mM Tris, 300 mM NaCl, 10% glycerol, 5 mM β-mercaptoethanol, pH 7.8 by ultrafiltration.
General Procedure for PRMT8 Enzyme Assays on Peptide Substrates.
The assays were all performed in a buffer consisting of 20 mM Bicine (pH=7.6), 1 mM TCEP, 0.005% BSG, and 0.002% Tween 20, prepared on the day of use. […] DMSO (1 ul) was added to Columns 11, 12, 23, 24, rows A-H for the maximum signal control and 1 ul of SAH, a known product and inhibitor of PRMT8, was added to columns 11, 12, 23, 24, rows I-P for the minimum signal control. A cocktail (40 ul) containing the PRMT8 enzyme was added by Multidrop Combi (Thermo-Fisher). The compounds were allowed to incubate with PRMT8 for 30 min at room temperature, then a cocktail (10 ul) containing ^3H-SAM and peptide was added to initiate the reaction (final volume=51 ul). […] The assays were stopped by the addition of non-radiolabeled SAM (10 ul) to a final concentration of 400 uM, which dilutes the ^3H-SAM to a level where its incorporation into the peptide substrate is no longer detectable. 50 ul of the reaction in the 384-well polypropylene plate was then transferred to a 384-well Flashplate and the biotinylated peptides were allowed to bind to the streptavidin surface for at least 1 hour before being washed once with 0.1% Tween20 in a Biotek ELx405 plate washer. The plates were then read in a PerkinElmer TopCount plate reader to measure the quantity of ^3H-labeled peptide bound to the Flashplate surface, measured as disintegrations per minute (dpm) or alternatively, referred to as counts per minute (cpm).
Where dpm=disintegrations per minute, cmpd=signal in assay well, and min and max are the respective minimum and maximum signal controls.
Where top and bottom are the normally allowed to float, but may be fixed at 100 or 0 respectively in a 3-parameter fit. The Hill Coefficient normally allowed to float but may also be fixed at 1 in a 3-parameter fit. Y is the % inhibition and X is the compound concentration.

[1] = Biochemical IC50 PRMT6, single experiment or average of multiple experiments
[2] = single experiment or average of multiple experiments

T1 sequence (Q96LA8 with tags, fused parts or gaps): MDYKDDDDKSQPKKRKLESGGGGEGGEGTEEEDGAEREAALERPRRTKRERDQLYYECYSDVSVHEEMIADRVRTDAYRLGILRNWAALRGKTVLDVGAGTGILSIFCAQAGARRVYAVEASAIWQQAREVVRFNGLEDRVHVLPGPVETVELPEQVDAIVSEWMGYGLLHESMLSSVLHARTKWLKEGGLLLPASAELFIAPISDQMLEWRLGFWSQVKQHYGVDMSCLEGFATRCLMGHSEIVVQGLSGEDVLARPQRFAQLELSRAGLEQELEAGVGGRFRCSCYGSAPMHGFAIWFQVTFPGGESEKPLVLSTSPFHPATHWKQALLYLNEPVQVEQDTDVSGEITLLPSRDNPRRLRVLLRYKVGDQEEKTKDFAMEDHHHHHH
human PRMT8, sequence (Q9NR22 whole entry): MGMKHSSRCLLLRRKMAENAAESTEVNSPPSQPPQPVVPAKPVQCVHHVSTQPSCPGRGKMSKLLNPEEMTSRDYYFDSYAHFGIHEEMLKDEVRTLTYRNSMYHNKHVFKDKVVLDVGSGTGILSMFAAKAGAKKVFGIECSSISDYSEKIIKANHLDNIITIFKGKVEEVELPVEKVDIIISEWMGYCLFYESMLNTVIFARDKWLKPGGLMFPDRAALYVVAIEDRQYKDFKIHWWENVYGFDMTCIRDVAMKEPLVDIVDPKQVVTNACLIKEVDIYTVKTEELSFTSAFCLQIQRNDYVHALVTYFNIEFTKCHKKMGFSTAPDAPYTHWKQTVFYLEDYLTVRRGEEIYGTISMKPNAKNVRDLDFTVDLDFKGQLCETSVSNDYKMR

IC50 (human PRMT6; Biochemical IC50 PRMT6) [nM]	IC50 (human PRMT6; [1]) [nM]	IC50 (human PRMT8) [nM]	IC50 (human PRMT8; [2]) [nM]	SMILES	IC50 (human PRMT6; single experiment or average of multiple experiments, read-out: Biochemical IC50 PRMT6) [nM]
< 100	36.5	< 100	46	CNCCN(C)Cc1c[nH]nc1-c1ccc(OCCOC)cc1 [Compound 289]	
< 100	32.4	< 100	17	CCC(COC)Oc1ccc(-c2n[nH]cc2CN(C)CCNC)cc1 (centres unmarked) [Compound 310]	
	8.42		656	CN(CCN)Cc1c[nH]nc1-c1cc(Cl)cc(Cl)c1 [Compound 137]	
	17		366	CN(CCN)Cc1n[nH]cc1-c1ccc(C(F)(F)F)cc1 [Compound 103]	
< 100	19.5	< 100	90.9	CNCCN(C)Cc1c[nH]nc1-c1ccc(Oc2ccncn2)cc1 [Compound 312]	
< 100	83.2	< 100	8.52	CNCCN(C)Cc1c[nH]nc1-c1ccc(OC2CCOCC2)c(Cl)c1 [Compound 292]	
< 100	25.6	< 100	42.8	CNCCN(C)Cc1c[nH]nc1-c1ccc(OC2COC2)cc1 [Compound 283]	
	107		1750	CCN(CC)C(=O)c1ccc(-c2n[nH]cc2CN(C)CCN)cc1 [Compound 143]	
< 100	10.6	101 to 1000	108	CNCCN(C)Cc1c[nH]nc1-c1ccc(OC2CC(OC)C2)cc1 (centres unmarked) [Compound 315]	
	16.2		47.5	CN(CCN)Cc1c[nH]nc1-c1ccc(OC2CC2)cc1 [Compound 114]	
	16.5		540	Cc1cc(C#N)ccc1-c1n[nH]cc1CN(C)CCN [Compound 110]	
	7.48		218	CN(CCN)Cc1c[nH]nc1-c1cc(F)cc(Cl)c1 [Compound 121]	
< 100	24.1	< 100	22.4	CNCCN(C)Cc1c[nH]nc1-c1ccc(OC2CCC2)cc1 [Compound 304]	
	14.1		548	COc1cc(Cl)cc(-c2n[nH]cc2CN(C)CCN)c1 [Compound 127]	
	49.1		171	CC(C)Oc1ccc(-c2c[nH]nc2CN(C)CCN)cc1F [Compound 144]	
	27.9		2200	CN(CCN)Cc1c[nH]nc1-c1ccc(F)cc1F [Compound 99]	
< 100	23.3	< 100	18.5	CNCCN(C)Cc1c[nH]nc1-c1ccc(OCC(C)C)cc1 [Compound 306]	
	15		912	COc1ccc(-c2n[nH]cc2CN(C)CCN)c(F)c1 [Compound 107]	

IC50 (human PRMT6; Biochemical IC50 PRMT6) [nM]	IC50 (human PRMT6; [1]) [nM]	IC50 (human PRMT8) [nM]	IC50 (human PRMT8; [2]) [nM]	SMILES	IC50 (human PRMT6; single experiment or average of multiple experiments, read-out: Biochemical IC50 PRMT6) [nM]
	45.3		301	CN(CCN)Cc1n[nH]cc1-c1ccc(C2CC2)cc1 [Compound 104]	
< 100	96.7	< 100	43	CNCCN(C)Cc1c[nH]nc1-c1ccc(OC(COC)COC)cc1 [Compound 316]	
	17.1		532	CN(CCN)Cc1c[nH]nc1-c1cccc(Cl)c1F [Compound 123]	
< 100	24	< 100	54.7	CNCCN(C)Cc1c[nH]nc1-c1ccc(Oc2cncnc2)cc1 [Compound 303]	
	38.3		3240	CCn1ncc(CN(C)CCNC)c1-c1ccc(F)cc1 [Compound 7]	
	12.8		496	CCNC(=O)c1ccc(-c2n[nH]cc2CN(C)CCN)cc1 [Compound 136]	
< 100	15.2	< 100	13	CC[C@H](C)Oc1ccc(-c2n[nH]cc2CN(C)CCNC)cc1 [Compound 309]	
	4.87		87.8	CN(CCN)Cc1c[nH]nc1-c1ccc(C(F)(F)F)c(Cl)c1 [Compound 117]	
	8.99		548	CN(CCN)Cc1c[nH]nc1-c1cccc(Cl)c1 [Compound 122]	
	7.15		294	CN(CCN)Cc1c[nH]nc1-c1ccc(F)c(Cl)c1 [Compound 124]	
	11.2		290	CN(CCN)Cc1n[nH]cc1-c1ccc(C#N)cc1 [Compound 100]	
< 100	28.8	< 100	28	CNCCN(C)Cc1c[nH]nc1-c1ccc(OC2CC2)cc1 [Compound 293]	
< 100	64.9	< 100	33.7	CNCCN(C)Cc1c[nH]nc1-c1ccc(NC(C)C)cc1 [Compound 295]	
< 100	27.6	< 100	18.3	CNCCN(C)Cc1c[nH]nc1-c1ccc(OC2CCC2)c(F)c1 [Compound 305]	
	3.18		136	CN(CCN)Cc1c[nH]nc1-c1ccc(Cl)c(F)c1 [Compound 118]	
< 100	33.2	< 100	69.2	CNCCN(C)Cc1c[nH]nc1-c1ccc(OCC2CCOC2)cc1 (centres unmarked) [Compound 285]	
	10.1		142	Cc1cc(Cl)ccc1-c1n[nH]cc1CN(C)CCN [Compound 133]	
< 100	15.9	< 100	55	CNCCN(C)Cc1c[nH]nc1-c1ccc(OC2CCC(O)CC2)cc1 (centres unmarked) [Compound 299]	

SMILES	IC50 (human PRMT6; Biochemical IC50 PRMT6) [nM]	IC50 (human PRMT6; [1]) [nM]	IC50 (human PRMT8) [nM]	IC50 (human PRMT8; [2]) [nM]	IC50 (human PRMT6; single experiment or average of multiple experiments, read-out: Biochemical IC50 PRMT6) [nM]
CC(C)c1ccc(-c2c[nH]nc2CN(C)CCN)cc1 [Compound 101]		136		570	
CNCCN(C)Cc1c[nH]nc1-c1ccc(OC2CCOCC2)c(F)c1 [Compound 291]	< 100	27.7	< 100	25.4	
CNCCN(C)Cc1c[nH]nc1-c1ccc(OC(CO)C(C)C)cc1 (centres unmarked) [Compound 286]	< 100		< 100	55.3	32.1
CN(CCN)Cc1c[nH]nc1-c1ccc(Cl)cc1F [Compound 132]		9.91		365	
